Reference: article PMC11578313, “Miniaturized Modular Click Chemistry‐enabled Rapid Discovery of Unique SARS‐CoV‐2 M^pro Inhibitors With Robust Potency and Drug‐like Profile” (Advanced Science, 2024)
Several values for one entry are separate records, joined by “and”; a condition that tells them apart may be missing. Equal values may be shown once. Read-outs that look alike come from different tables or passages of the source.

Columns and labels:
[1] = tested on: SARS‐CoV‐2 Gamma (hCoV‐19/Korea/KDCA95637/2021); assay: microbe, parasite or virus in culture; type: cell-based; details: Severe acute respiratory syndrome coronavirus 2; Calu‐3; read-out: EC50 ± SD, SARS‐CoV‐2 Gamma
[2] = tested on: SARS‐CoV‐2 Delta (hCoV‐19/Korea/KDCA119861/2021); assay: microbe, parasite or virus in culture; type: cell-based; details: Severe acute respiratory syndrome coronavirus 2; Calu‐3; read-out: EC50 ± SD, SARS‐CoV‐2 Delta
MERS‐CoV = assay: microbe, parasite or virus in culture; type: cell-based
HCoV‐OC43 = assay: microbe, parasite or virus in culture; type: cell-based; details: Betacoronavirus 1, MRC5, read-out: EC50 ± SD, HCoV‐OC43
HCoV‐229E = assay: microbe, parasite or virus in culture; type: cell-based
[3] = for Plasma concentration (Calculated Concentration): mouse plasma
in vivo = details: ICR, mouse, po
in vitro = details: rhesus monkey
[4] = Cytotoxicity assay (MTT) in MRC‐5 cells; details: human
[5] = C5N17B+Ritonavir, PO 10 mg/kg, individual mice 1#-3#, 10 mg/kg
[6] = C5N17B+Ritonavir, po 10 mg/kg, based on predicted Clast, individual mice, 10 mg/kg
[7] = C5N17B+Ritonavir, po 10 mg/kg, dose-normalised, individual mice, 10 mg/kg
[8] = C5N17B+Ritonavir, po 10 mg/kg, non-compartmental output, individual mice, 10 mg/kg
[9] = 10 mg/kg, p.o. in combination with ritonavir, p.o. 10 mg kg^−1 with 20 mg kg^−1 ritonavir, ICR mice, n = 3
[10] = male, 10 mg/kg, Mean, C5N17B+Ritonavir, PO 10 mg/kg, mean of 3 mice
[11] = male, 10 mg/kg, Plasma concentration (Calculated Concentration), C5N17B+Ritonavir, PO 10 mg/kg, mouse plasma, individual mice
[12] = male, 10 mg/kg, Plasma concentration, Mean, C5N17B+Ritonavir, PO 10 mg/kg, mean of mice 1#-3#

## Cc1cncc(C(=O)N2C[C@H]3CC[C@@H](C2)N3[C@H](c2cccc(F)c2)c2cn(CCc3ccsc3)nn2)c1 [Compound C5N17B]
[1]
  EC50: 260 ± 13 nM
[2]
  EC50: 154 ± 19 nM
MERS‐CoV
  EC50 ± SD, MERS‐CoV: failed to inhibit
MERS‐CoV; Middle East respiratory syndrome-related coronavirus, Huh-7, read-out: EC50 ± SD, MERS‐CoV
  EC50: > 100000 nM
HCoV‐OC43
  EC50: 2710 ± 510 nM
HCoV‐229E; Human coronavirus 229E, MRC5, read-out: EC50 ± SD, HCoV‐229E
  EC50: > 100000 nM
HCoV‐229E; MRC‐5
  EC50 ± SD, HCoV‐229E: failed to inhibit
[3]; [5]
  AUC0-∞: 13462 ng·h/mL and 18653 ng·h/mL
  AUC(0-t): 13105 ng·h/mL and 11834 ng·h/mL
  Cmax: 2150 ng/mL and 2470 ng/mL
  MRT0-t: 3.43 h and 3.39 h
  MRT0-∞: 3.03 h and 3.63 h and 7.98 h
  T1/2: 1.87 h and 2.03 h and 5.52 h
[3]; C5N17B+Ritonavir, PO 10 mg/kg, 5 min (5min), individual mice, 10 mg/kg
  Plasma concentration (Calculated Concentration): 861 ng/mL and 439 ng/mL
[3]; C5N17B+Ritonavir, PO 10 mg/kg, 0.5 h (30min), individual mice, 10 mg/kg
  Plasma concentration (Calculated Concentration): 1220 ng/mL and 1720 ng/mL
[3]; C5N17B+Ritonavir, PO 10 mg/kg, 1 h, individual mice, 10 mg/kg
  Plasma concentration (Calculated Concentration): 1750 ng/mL and 1960 ng/mL
[3]; C5N17B+Ritonavir, PO 10 mg/kg, 2 h, individual mice, 10 mg/kg
  Plasma concentration (Calculated Concentration): 2270 ng/mL and 2140 ng/mL
[3]; C5N17B+Ritonavir, PO 10 mg/kg, 4 h, individual mice, 10 mg/kg
  Plasma concentration (Calculated Concentration): 1920 ng/mL and 2150 ng/mL
[3]; [6]
  AUCINF_pred: 13994.4 ng·h/mL and 18824.1 ng·h/mL
  Cl_F_pred: 15.3694 mL/min/kg and 11.9096 mL/min/kg and 8.85392 mL/min/kg
  MRTINF_pred: 3.269 h and 3.905 h and 8.0548 h
  Vz_F_pred: 2.48776 L/kg and 2.09319 L/kg and 4.22695 L/kg
[3]; C5N17B+Ritonavir, po 10 mg/kg, dose-normalised, based on predicted Clast, individual mice, 10 mg/kg
  AUCINF_D_pred: 1084.41 kg·ng·h/mL/mg and 1399.44 kg·ng·h/mL/mg and 1882.41 kg·ng·h/mL/mg
[3]; [7]
  AUCINF_D_obs: 1039.52 kg·ng·h/mL/mg and 1346.22 kg·ng·h/mL/mg and 1865.31 kg·ng·h/mL/mg
  AUClast_D: 968.565 kg·ng·h/mL/mg and 1310.48 kg·ng·h/mL/mg and 1183.41 kg·ng·h/mL/mg
  Cmax_D: 227 kg·ng/mL/mg and 215 kg·ng/mL/mg and 247 kg·ng/mL/mg
[3]; C5N17B+Ritonavir, po 10 mg/kg, non-compartmental output, individual mice
  Tlag: 0 h
[3]; [8]
  AUCINF_obs: 13462.2 ng·h/mL and 18653.1 ng·h/mL
  AUCall: 13104.8 ng·h/mL and 11834.1 ng·h/mL
  AUClast: 13104.8 ng·h/mL and 11834.1 ng·h/mL
  AUMClast: 25373.2 h*h*ng/ml and 44928.8 h*h*ng/ml and 40086.7 h*h*ng/ml
  Cl_F_obs: 12.3804 mL/min/kg and 8.93505 mL/min/kg
  Cmax: 2150 ng/mL and 2470 ng/mL
  HL_Lambda_z: 1.87 h and 2.03 h and 5.515 h
  Lambda_z: 0.3707 h⁻¹ and 0.3414 h⁻¹ and 0.1257 h⁻¹
  MRTINF_obs: 3.035 h and 3.628 h and 7.982 h
  MRTlast: 3.428 h and 3.387 h
  Tlast: 6 h and 8 h
  Vz_F_obs: 2.5952 L/kg and 2.17594 L/kg and 4.26569 L/kg
[3]; C5N17B+Ritonavir, po 10 mg/kg, predicted from terminal fit, individual mice, 10 mg/kg
  Clast_pred: 429.412 ng/mL and 303.677 ng/mL and 878.481 ng/mL
[3]; p.o. 10 mg kg^−1
  plasma exposure (AUC0‐t) with ritonavir higher than when administered alone: ~300 fold
In vivo; [9]
  Cmax: 2300 ± 162 ng/mL
  Tmax: 2.08 ± 1.88 h
In vivo; 10 mg/kg, MRT0‐t, p.o. in combination with ritonavir, p.o. 10 mg kg^−1 with 20 mg kg^−1 ritonavir, ICR mice, n = 3
  MRT: 3.15 ± 0.456 h
In vivo; 10 mg/kg, MRT0‐∞, p.o. in combination with ritonavir, p.o. 10 mg kg^−1 with 20 mg kg^−1 ritonavir, ICR mice, n = 3
  MRT: 4.88 ± 2.7 h
In vivo; 10 mg/kg, t1/2, p.o. in combination with ritonavir, p.o. 10 mg kg^−1 with 20 mg kg^−1 ritonavir, ICR mice, n = 3
  half-life: 3.14 ± 2.06 h
In vivo; AUC0‐t, p.o. in combination with ritonavir, p.o. 10 mg kg^−1 with 20 mg kg^−1 ritonavir, ICR mice, n = 3
  AUC: 11500 ng·h/mL
In vivo; male, 10 mg/kg, AUC0-t, C5N17B+Ritonavir, PO 10 mg/kg, individual mice 1#-3#
  AUC(0-t): 9690 ng·h/mL
In vivo; male, 10 mg/kg, AUC0-t, Mean, C5N17B+Ritonavir, PO 10 mg/kg, mean of 3 mice
  AUC(0-t): 11500 ng·h/mL
In vivo; male, 10 mg/kg, AUC0-∞, C5N17B+Ritonavir, PO 10 mg/kg, individual mice 1#-3#
  AUC(0-inf): 10400 ng·h/mL
In vivo; male, 10 mg/kg, AUC0-∞, Mean, C5N17B+Ritonavir, PO 10 mg/kg, mean of 3 mice
  AUC(0-inf): 14200 ng·h/mL
In vivo; male, 10 mg/kg, AUCINF_obs, C5N17B+Ritonavir, po 10 mg/kg, non-compartmental output, individual mice
  AUC(0-inf): 10400 ng·h/mL
In vivo; male, 10 mg/kg, AUCINF_pred, C5N17B+Ritonavir, po 10 mg/kg, based on predicted Clast, individual mice
  AUC(0-inf): 10800 ng·h/mL
In vivo; male, 10 mg/kg, AUCall, C5N17B+Ritonavir, po 10 mg/kg, non-compartmental output, individual mice
  AUC: 9690 ng·h/mL
In vivo; male, 10 mg/kg, AUClast, C5N17B+Ritonavir, po 10 mg/kg, non-compartmental output, individual mice
  AUC(0-t): 9690 ng·h/mL
In vivo; male, 10 mg/kg, Cl_F_obs, C5N17B+Ritonavir, po 10 mg/kg, non-compartmental output, individual mice
  CL/F: 16 mL/min/kg
In vivo; male, 10 mg/kg, C5N17B+Ritonavir, PO 10 mg/kg, individual mice 1#-3#
  Cmax: 2270 ng/mL
In vivo; male, 10 mg/kg, C5N17B+Ritonavir, po 10 mg/kg, non-compartmental output, individual mice
  Cmax: 2270 ng/mL
In vivo; [10]
  Cmax: 2300 ng/mL
  Tmax: 2.08 h
In vivo; male, 10 mg/kg, MRT0-t, C5N17B+Ritonavir, PO 10 mg/kg, individual mice 1#-3#
  MRT last: 2.62 h
In vivo; male, 10 mg/kg, MRT0-t, Mean, C5N17B+Ritonavir, PO 10 mg/kg, mean of 3 mice
  MRT last: 3.15 h
In vivo; male, 10 mg/kg, MRT0-∞, Mean, C5N17B+Ritonavir, PO 10 mg/kg, mean of 3 mice
  MRT inf: 4.88 h
In vivo; male, 10 mg/kg, MRTlast, C5N17B+Ritonavir, po 10 mg/kg, non-compartmental output, individual mice
  MRT last: 2.62 h
In vivo; male, 10 mg/kg, Plasma concentration (Calculated Concentration), C5N17B+Ritonavir, PO 10 mg/kg, mouse plasma, 5 min (5min), individual mice
  concentration at 5 min: 680 ng/mL
In vivo; male, 10 mg/kg, Plasma concentration (Calculated Concentration), C5N17B+Ritonavir, PO 10 mg/kg, mouse plasma, 0.5 h (30min), individual mice
  concentration at 0.5 h: 2280 ng/mL
In vivo; [11]
  concentration at 1 h: 2210 ng/mL
  concentration at 2 h: 1910 ng/mL
  concentration at 4 h: 1180 ng/mL
In vivo; male, 10 mg/kg, Plasma concentration, Mean, C5N17B+Ritonavir, PO 10 mg/kg, 5 min, mean of mice 1#-3#
  concentration at 5 min: 660 ng/mL
In vivo; male, 10 mg/kg, Plasma concentration, Mean, C5N17B+Ritonavir, PO 10 mg/kg, 0.50 h, mean of mice 1#-3#
  concentration at 0.5 h: 1740 ng/mL
In vivo; [12]
  concentration at 1 h: 1970 ng/mL
  concentration at 2 h: 2110 ng/mL
  concentration at 4 h: 1750 ng/mL
In vivo; male, 10 mg/kg, Plasma concentration, Mean, C5N17B+Ritonavir, PO 10 mg/kg, 6 h, mean of mice 1#-3#
  concentration at 6 h: 1040 ng/mL
In vivo; male, 10 mg/kg, Plasma concentration, Mean, C5N17B+Ritonavir, PO 10 mg/kg, 8 h, mean (1# BQL)
  concentration at 8 h: 490 ng/mL
In vivo; male, 10 mg/kg, T1/2, Mean, C5N17B+Ritonavir, PO 10 mg/kg, mean of 3 mice
  half-life: 3.14 h
In vitro
  CC50: > 100000 nM
[4]
  CC50 at 5 day: > 100000 nM
  CC50 at 6 day: > 100000 nM
